We go through six compounds from paper PMC7875478 (Journal of veterinary pharmacology and therapeutics, 2020).

Molecules are shown by their SMILES. Read-outs that look alike come from different tables or passages of the source.

Data set [1] can be described thus: Cytochrome P450 inhibition assay with PBZ in equine liver microsomes. Format: in vitro ADME. Conditions: inhibitor 10 μM, PBZ 400 μM.
A further data set has as its system equine CYP1A1. Conditions: 5-OH flunixin formation.
The test system of another data set is equine CYP3A93. The conditions noted are these: 5-OH flunixin formation.
Data set [2] relates to equine CYP3A97.
A short description of data set [3]: Flunixin meglumine metabolism to 5-OH flunixin in equine liver microsomes. Format: in vitro ADME. Conditions: for Vmax (or Vmax1) / Ki: 5-OH flunixin formation; for Ki: substrate inhibition model. In general terms: Liver microsomes are vesicles of endoplasmic reticulum, rich in cytochrome P450 enzymes.
A further data set deals with CYP2C92. The experiment in a line: Incubation of FM with recombinant equine CYP2C92. Format: in vitro ADME.
Data set [4] deals with equine liver microsomal P450 forming gamma-hydroxy phenylbutazone. The experiment in a line: Cytochrome P450 inhibition assay with PBZ in equine liver microsomes. Format: in vitro ADME. The conditions noted are these: horse, equine liver microsomes, pH 7.4.
The test system of another data set is recombinant CYP3A97. The experiment in a line: Cytochrome P450 inhibition assay with PBZ and recombinant CYP3A97. Conditions: recombinant CYP3A97, inhibitor 10 μM, PBZ 400 μM.
In data set [5] the test system is equine CYP3A97. The experiment in a line: Phenylbutazone metabolism to oxyphenbutazone by recombinant equine CYP3A97. The conditions noted are these: oxyphenbutazone formation from PBZ. Format: in vitro ADME.
Data set [6] in a line: Phenylbutazone metabolism in equine liver microsomes. Format: in vitro ADME. The conditions noted are these: metabolite formation from PBZ.
Where [7] appears, read: read-out: Km (or Km1), 5-OH flunixin formation.

Regarding `CC(C)(O)c1ccccc1CC[C@@H](SCC1(CC(=O)O)CC1)c1cccc(/C=C/c2ccc3ccc(Cl)cc3n2)c1` [montelukast], the “Oxyphenbutazone production decreased in microsomal incubations” value in data set [1] is listed as 53%.
Consider `Cc1c(Nc2ncc(O)cc2C(=O)O)cccc1C(F)(F)F` [5-OH flunixin, 5-hydroxy-flunixin], for which the Best fit model result is given as “Michaelis-Menten” with equine CYP3A95 (5-OH flunixin formation); “Biphasic” in the data set on equine CYP1A1 (CYP1A1); “Michaelis-Menten” in the data set on equine CYP3A94 (5-OH flunixin formation); “Biphasic” in the data set with equine CYP3A93 (CYP3A93); “Michaelis-Menten” in the data set on equine CYP3A97 [2] (5-OH flunixin formation); “Substrate Inhibition” in data set [3] (5-OH flunixin formation from FM). Moreover, the “Vmax (or Vmax1)” value came out at 0.675 pmol/min/pmol P450 with equine CYP3A95 (5-OH flunixin formation); 1.39 pmol/min/pmol P450 with equine CYP1A1 (CYP1A1, high-affinity phase); 1.39 pmol/min/pmol P450 in the data set with equine CYP3A94 (5-OH flunixin formation); 0.148 pmol/min/pmol P450 in the data set on equine CYP3A93 (CYP3A93, high-affinity phase); 0.450 pmol/min/pmol P450 with equine CYP3A97 [2] (5-OH flunixin formation); 0.613 pmol/min/pmol P450 in [3] (horse 1). Further, the “Vmax (or Vmax1)” value in data set [3] (horse 2) worked out at 0.803 pmol/min/pmol P450. The Km (in general, the substrate concentration at which the rate is half of its maximum) in the data set on equine CYP3A95 (setting [7]) is 928 µM; with equine CYP1A1 (read-out: Km (or Km1), CYP1A1, high-affinity phase) it was 495 µM; in the data set with equine CYP3A94 (setting [7]), 828 µM; with equine CYP3A93 (read-out: Km (or Km1), CYP3A93, high-affinity phase), 37.6 µM; in the data set on equine CYP3A97 [2] (setting [7]), 4.07 µM; in data set [3] (read-out: Km (or Km1), 5-OH flunixin formation, horse 1) it was 22.6 µM. Besides, the Km in data set [3] (read-out: Km (or Km1), 5-OH flunixin formation, horse 2) is 13.1 µM. In addition, the Vmax2 came out at 0.665 pmol/min/pmol P450 in the data set with equine CYP1A1 (CYP1A1, low-affinity phase) and 2.32 pmol/min/pmol P450 in the data set on equine CYP3A93 (CYP3A93, low-affinity phase). Further, the Km2 with equine CYP1A1 (CYP1A1, second phase) stood at 546.6 µM; in the data set on equine CYP3A93 (CYP3A93, second phase) it was 1539.8 µM. In addition, the Ki in data set [3] (horse 1) turned out to be 710 µM; in data set [3] (horse 2), 1190 µM.
For the compound `Cc1c(Nc2ncccc2C(=O)O)cccc1C(F)(F)F` [FM, flunixin meglumine], the “Generation of metabolites by CYP2C92” value with CYP2C92 is reported as “did not generate any measurable metabolites”.
In the case of `O=c1cc(-c2ccccc2)oc2c1ccc1ccccc12` [alpha-naphthoflavone], in data set [4], the inhibition (in general, the drop in the measured response relative to a control, in per cent) at 30 min, 10 μM was determined as 79%. The “Increased production of oxyphenbutazone compared to control” value in the data set with recombinant CYP3A97 is listed as 150%.
As for `CCCCC1C(=O)N(c2ccccc2)N(c2ccc(O)cc2)C1=O` (stereo not shown) [Oxyphenbutazone, oxyphenbutazone], the Best fit model result (in the data set on equine CYP3A97 [5]; in data set [6]) was “Michaelis-Menten” each time. For the same compound, the results for the Vmax (in the data set with equine CYP3A97 [5]; in [6] (horse 1); in [6] (horse 2)) were 2.66 pmol/min/pmol P450, 1.72 pmol/min/pmol P450 and 0.279 pmol/min/pmol P450, respectively.
Take `CC(O)CCC1C(=O)N(c2ccccc2)N(c2ccccc2)C1=O` (stereo not shown) [Gamma-hydroxy phenylbutazone, gamma-hydroxy phenylbutazone]: the Best fit model entry in data set [6] is given as “Michaelis-Menten”. Also, in data set [6] (horse 1), the Km came to 29.2 µM and the Vmax amounted to 1.56 pmol/min/pmol P450. For the same compound, in data set [6] (horse 2), the Km came to 79.3 µM and the Vmax was determined as 0.218 pmol/min/pmol P450.
